One may read the IC50 as the concentration that gives 50% inhibition. High values mean a need for much substance, low ones inhibition by little substance.

Experiment [1] concerns the target T1, human VR1 (Homo sapiens, UniProt Q8NER1).
T1 construct: host or cells: cells that express human VR1 receptors (cell type not specified)
Kind of experiment: Human VR1 antagonist assay (Ca2+ imaging assay using human VR1 highly expressing cells). Type of experiment: cell-based. As to conditions: intracellular Ca2+ imaging (fura-2). An excerpt: VR1 antagonistic activity can be determined by the Ca^2+ imaging assay using human VR1 highly expressing cells. The cells that highly express human VR1 receptors are obtainable from several different conventional methods. The one standard method is cloning from human Dorsal Root Ganglion (DRG) or kidney according to the methods such as described in the journal article; Nature, 389, pp 816-824, 1997. Alternatively VR1 receptors highly expressing human keratinocytes are also known and published in the journal article (Biochemical and Biophysical Research Communications, 291, pp 124-129, 2002). […] Furthermore, the method to up regulate human VR1 gene, which is usually a silent gene or don't produce detectable level of VR1 receptors, is also available to obtain propriety cells. Such genetic modification method was described in detail; Nat. Biotechnol., 19, pp 440-445, 2001.
The cells that express human VR1 receptors were maintained in culture flask at 37° C. in an environment containing 5% CO2 until use in the assay. The intracellular Ca^2+ imaging assay to determine VR1 antagonistic activities were done by following procedures.
The culture medium was removed from the flask and fura-2/AM fluorescent calcium indicator was added to the flask at a concentration of 5 μM in the medium. The flask was placed in CO2 incubator and incubated for 1 hour. Then the cells expressing the human VR1 receptors were detached from the flask follow by washing with phosphate buffer saline, PBS(−) and re-suspended in assay buffer. The 80 μl of aliquot of cell suspension (3.75×10^5 cells/ml) was added to the assay plate and the cells were spun down by centrifuge (950 rpm, 20° C., 3 minutes).
Compounds of the examples were tested in the Human VR1 antagonist assay described above.
The capsaicin-induced changes in the intracellular calcium concentration were monitored using FDSS 6000 (Hamamatsu Photonics, Japan), a fluorometric imaging system. The cell suspension in Krebs-Ringer HEPES (KRH) buffer (115 mM NaCl, 5.4 mM KCl, 1 mM MgSO4, 1.8 mM CaCl2, 11 mM D-Glucose, 25 mM HEPES, 0.96 mM Na2HPO4, pH 7.3) were pre-incubated with varying concentrations of the test compounds or KRH buffer (buffer control) for 15 minutes at room temperature under the dark condition. Then capsaicin solution, which gives 300 nM in assay mixture, was automatically added to the assay plate by the FDSS 6000.
The Acid-induced changes in the intracellular calcium concentration were monitored using FDSS 6000 (Hamamatsu Photonics, Japan), a fluorometric imaging system. The cell suspension in resting buffer (HBSS supplemented with 10 mM HEPES, pH 7.4) were pre-incubated with varying concentrations of the test compounds or resting buffer (buffer control) for 15 minutes at room temperature under the dark condition. The cells were automatically added the stimulating solution (HBSS supplemented with MES, final assay buffer pH5.8) by the FDSS 6000.
The monitoring of the changes in the fluorescence signals (λex=340 nm/380 nm, λem=510-520 nm) was initiated at 1 minute prior to the addition of capsaicin solution or acidic buffer and continued for 5 minute.

In experiment [2] the target is T1, human VR1. Kind of experiment: Determination of pA2 values against capsaicin stimulation (Ca2+ imaging, FLIPR TETRA, Schild analysis). Type of experiment: cell-based. Particulars: against capsaicin agonist dose-response. The procedure: pA2 values of antagonists against the capsaicin agonist dose-response were determined using a Ca^2+ imaging assay with cells expressing high levels of human VR1 (for explanation of theory behind pA2 determinations, see A Pharmacological Primer: Theory, Applications, and Methods 2nd edition by Terry P. Kenakin, pp. 102-108, Academic Press, New York, 2006). Cells that express high levels of VR1 were obtained by generation of a cell line from […] with heterologous expression of VR1 under control of an inducible promoter. Specifically, cells expressing human VR1 under the control of the human cytomegalovirus immediate-early (CMV) promoter and two tetracycline operator 2 (TetO2) sites were made using the T-REx System (Invitrogen, Carlsbad, Calif., USA). Details and methods concerning this system are published (Hum. Gene Ther. 9, pp. 1939-1950, 1998; Annu. Rev. Microbiol. 48, pp. 345-369, 1994; Mol. Biol. 169, pp. 707-721, 1983). VR1 was subcloned into the T-REx System pcDNA5/TO vector (Invitrogen Cat# V1033-20) which was transfected into the T-REx System […] cell line (Invitrogen Cat# R710-07) from which a stable cell line was established which express VR1 after induction by exposure to tetracycline or doxycycline (Hum. Gene Ther. 9, pp. 1939-1950, 1998; instructions that come with purchase of products noted above). […]
For assay preparation, cells expressing human VR1 as described above were plated in 96-well plates (Becton Dickinson [BD] poly-D-lysine coated 96-well plates, cat#356692) at 55,000 cells per well in culture media (described above) that also contains 1 ug/ml doxycycline. […] Changes in the fluorescence signal (λex=470-495 nm, λem=515-575 nm) were monitored throughout the experiment before agonist addition and for at least 2 min after agonist addition (enough time for the fluorescence response to reach and then decline from the absolute maximum, agonist-induced signal attained). […]

T1 sequence (Q8NER1 whole entry): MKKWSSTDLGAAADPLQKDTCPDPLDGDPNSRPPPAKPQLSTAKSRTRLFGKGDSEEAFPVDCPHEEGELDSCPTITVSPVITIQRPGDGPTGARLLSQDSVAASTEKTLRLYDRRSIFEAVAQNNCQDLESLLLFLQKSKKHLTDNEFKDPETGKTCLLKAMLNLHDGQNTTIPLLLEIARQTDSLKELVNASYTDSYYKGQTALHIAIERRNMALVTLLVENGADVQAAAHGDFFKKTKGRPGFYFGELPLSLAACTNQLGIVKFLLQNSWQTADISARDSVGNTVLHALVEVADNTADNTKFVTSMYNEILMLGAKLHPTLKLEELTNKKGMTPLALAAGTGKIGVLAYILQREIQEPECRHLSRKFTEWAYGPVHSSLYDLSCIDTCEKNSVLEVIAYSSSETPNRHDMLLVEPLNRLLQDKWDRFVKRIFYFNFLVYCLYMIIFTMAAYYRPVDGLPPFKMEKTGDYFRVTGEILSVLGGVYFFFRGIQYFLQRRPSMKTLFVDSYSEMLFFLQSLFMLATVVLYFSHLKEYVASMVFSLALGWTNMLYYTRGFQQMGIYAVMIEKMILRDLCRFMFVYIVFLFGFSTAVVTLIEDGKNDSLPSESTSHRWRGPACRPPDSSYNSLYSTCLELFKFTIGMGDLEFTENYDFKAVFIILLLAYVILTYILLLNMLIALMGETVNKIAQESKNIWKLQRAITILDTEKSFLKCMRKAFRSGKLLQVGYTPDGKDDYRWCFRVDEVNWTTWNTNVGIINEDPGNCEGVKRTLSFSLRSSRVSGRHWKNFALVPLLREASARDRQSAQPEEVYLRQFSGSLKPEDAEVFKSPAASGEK

`Cc1c([C@@H](C)NC(=O)c2ccc3nc(C(C)(C)C(F)(F)F)ccc3c2)cnn1CC(F)(F)F` [Example 6, N-((1R)-1-(5-methyl-1-(2,2,2-trifluoroethyl)-1H-pyrazol-4-yl)ethyl)-2-(2,2,2-trifluoro-1,1-dimethylethyl)quinoline-6-carboxamide] yielded an IC50 against human VR1 [1] of 0.0266 µM. The Kb at human VR1 [2] (pre-incubation 2 mins) is 0.00186 µM.
Consider `C[C@H](NC(=O)c1ccc2nc(C(C)(C)C(F)(F)F)ccc2c1)c1cnn(C)c1Cl` [Example 18], for which, at human VR1 [1], the IC50 is 0.018 µM. The Kb on human VR1 [2] (pre-incubation 30 mins) was 0.00525 µM.
Turning to `Cc1c([C@@H](C)NC(=O)c2ccc3nc(C(C)(C)C(F)(F)F)ccc3c2)cnn1C` [Example 1], the midpoint of inhibition on human VR1 [1], the IC50, lay at 0.0252 µM. The molecule further gave a Kb at human VR1 [2] (pre-incubation 2 mins) of 0.00174 µM.
